Laboratory results reported in ChEMBL document CHEMBL3745645, “Synthesis, in vitro antitumor activity, dihydrofolate reductase inhibition, DNA intercalation and structure-activity relationship studies of 1,3,5-triazine analogues” (Bioorg Med Chem Lett, 2016).
Activity calls are given as the source filed them. No cut-off for these calls is given here.

Legend:
SN12C = assay: Cytotoxicity against human SN12C cells at 10 uM after 48 hrs by SRB assay; assay type: functional; conditions: read-out: GI
TK-10 = assay: (§1) Cytotoxicity against human TK10 cells at 10 uM after 48 hrs by SRB assay; assay type: functional
[1] = Cytotoxicity against human UO31 cells at 10 uM after 48 hrs by SRB assay; assay type: functional; conditions: UO-31, 48 h, read-out: GI
[2] = Cytotoxicity against human DU145 cells at 10 uM after 48 hrs by SRB assay; assay type: functional; conditions: DU-145, 48 h, read-out: GI
BT-549 = assay: (§2) Cytotoxicity against human BT549 cells at 10 uM after 48 hrs by SRB assay; assay type: functional
CCRF-CEM [3] = assay: Cytotoxicity against human CCRF-CEM cells after 48 hrs by SRB assay; assay type: functional; conditions: for GI50 / TGI: pooled result: one value given for 6 cell lines, strains, targets or settings
[4] = Cytotoxicity against human RPMI8226 cells after 48 hrs by SRB assay; assay type: functional; conditions: RPMI-8226, 48 h, read-out: LC50 (the source's name)
[5] = Cytotoxicity against human COLO205 cells after 48 hrs by SRB assay; assay type: functional; conditions: COLO 205, 48 h, pooled result: one value given for 7 cell lines, strains, targets or settings
[6] = Cytotoxicity against human LOXIMVI cells after 48 hrs by SRB assay; assay type: functional; conditions: LOX IMVI, pooled result: one value given for 9 cell lines, strains, targets or settings
[7] = Cytotoxicity against human IGROV1 cells after 48 hrs by SRB assay; assay type: functional; conditions: IGROV-1, 48 h, pooled result: one value given for 7 cell lines, strains, targets or settings
786-0 = assay: Cytotoxicity against human 786-0 cells after 48 hrs by SRB assay; assay type: functional; conditions: 786-0, 48 h, pooled result: one value given for 8 cell lines, strains, targets or settings
[8] = Cytotoxicity against human DU145 cells after 48 hrs by SRB assay; assay type: functional; conditions: DU-145, 48 h, read-out: LC50 (the source's name)
Calf thymus DNA = assay: Binding affinity to calf thymus DNA by UV-vis spectrometric analysis; assay type: nucleic-acid assay; conditions: Bos taurus
CCRF-CEM [9] = assay: Cytotoxicity against human CCRF-CEM cells at 10 uM after 48 hrs by SRB assay; assay type: functional; conditions: read-out: GI
HL-60(TB) = assay: Cytotoxicity against human HL-60(TB) cells at 10 uM after 48 hrs by SRB assay; assay type: functional
[10] = (§3) Cytotoxicity against human RPMI8226 cells at 10 uM after 48 hrs by SRB assay; assay type: functional; conditions: RPMI-8226, 48 h, read-out: GI
A549 = assay: Cytotoxicity against human A549 cells at 10 uM after 48 hrs by SRB assay; assay type: functional; conditions: A549, 48 h, read-out: GI
[11] = Cytotoxicity against human HOP62 cells at 10 uM after 48 hrs by SRB assay; assay type: functional; conditions: HOP-62, 48 h, read-out: GI
NCI-H226 = assay: Cytotoxicity against human NCI-H226 cells at 10 uM after 48 hrs by SRB assay; assay type: functional; conditions: NCI-H226, 48 h, read-out: GI
[12] = Cytotoxicity against human HCC2998 cells at 10 uM after 48 hrs by SRB assay; assay type: functional; conditions: HCC 2998, 48 h, read-out: GI
[13] = Cytotoxicity against human HCT15 cells at 10 uM after 48 hrs by SRB assay; assay type: functional; conditions: HCT-15, 48 h, read-out: GI
[14] = Cytotoxicity against human SF295 cells at 10 uM after 48 hrs by SRB assay; assay type: functional; conditions: SF-295, 48 h, read-out: GI
[15] = Cytotoxicity against human SNB19 cells at 10 uM after 48 hrs by SRB assay; assay type: functional; conditions: SNB-19, 48 h, read-out: GI
U-251 = assay: Cytotoxicity against human U251 cells at 10 uM after 48 hrs by SRB assay; assay type: functional; conditions: U-251, 48 h, read-out: GI
[16] = Cytotoxicity against human LOXIMVI cells at 10 uM after 48 hrs by SRB assay; assay type: functional; conditions: LOX IMVI, read-out: GI
M14 = assay: Cytotoxicity against human M14 cells at 10 uM after 48 hrs by SRB assay; assay type: functional; conditions: M14, 48 h, read-out: GI
MDA-MB-435 = assay: Cytotoxicity against human MDA-MB-435 cells at 10 uM after 48 hrs by SRB assay; assay type: functional; conditions: MDA-MB-435, 48 h, read-out: GI
SK-MEL-28 = assay: Cytotoxicity against human SK-MEL-28 cells at 10 uM after 48 hrs by SRB assay; assay type: functional; conditions: SK-MEL-28, 48 h, read-out: GI
[17] = Cytotoxicity against human UACC257 cells at 10 uM after 48 hrs by SRB assay; assay type: functional; conditions: UACC-257, 48 h, read-out: GI
[18] = Cytotoxicity against human OVCAR3 cells at 10 uM after 48 hrs by SRB assay; assay type: functional; conditions: OVCAR-3, 48 h, read-out: GI
[19] = Cytotoxicity against human OVCAR4 cells at 10 uM after 48 hrs by SRB assay; assay type: functional; conditions: OVCAR-4, 48 h, read-out: GI
[20] = Cytotoxicity against human NCI-ADR-RES cells at 10 uM after 48 hrs by SRB assay; assay type: functional; conditions: read-out: GI
[21] = Cytotoxicity against human SKOV3 cells at 10 uM after 48 hrs by SRB assay; assay type: functional; conditions: SK-OV-3, 48 h, read-out: GI
[22] = as §1; assay type: functional; conditions: TK-10, 48 h, read-out: GI
[23] = Cytotoxicity against human PC3 cells at 10 uM after 48 hrs by SRB assay; assay type: functional; conditions: PC-3, 48 h, read-out: GI
[24] = as §2; assay type: functional; conditions: BT-549, 48 h, read-out: GI
RPMI-8226 = assay: as §3; assay type: functional
[25] = Cytotoxicity against human UACC62 cells at 10 uM after 48 hrs by SRB assay; assay type: functional; conditions: UACC-62, 48 h, read-out: GI

Cc1nc2cc(Nc3nc(Nc4ccc(F)cc4)nc(-c4ccc(Cl)cc4)n3)ccc2n1Cc1ccccc1
inhibition of growth at 10 µM (SN12C): 22.9% | growth inhibition (GI) (TK-10): inactive | inhibition of growth at 10 µM [1]: 55.5% | inhibition of growth at 10 µM [2]: 18.6% | growth inhibition (GI) (BT-549): inactive | LC50 (CCRF-CEM [3]): > 100 µM | GI50 (CCRF-CEM [3]): 3.39 µM | TGI (CCRF-CEM [3]): 9.55 µM | CC50 [4]: > 100 µM | GI50 [5]: 4.97 µM | LC50 [5]: > 100 µM | TGI [5]: 59.8 µM | GI50 [6]: 6.36 µM | LC50 [6]: 80.6 µM | TGI [6]: 31.7 µM | GI50 [7]: 6.1 µM | LC50 (concentration killing 50% of cells) [7]: 65.4 µM | TGI [7]: 24.4 µM | GI50 (786-0): 11.5 µM | LC50 (concentration killing 50% of cells) (786-0): > 100 µM | TGI (786-0): 45.4 µM | CC50 [8]: > 100 µM | Ka (Calf thymus DNA): 3.39 ×10⁴ /M | inhibition of growth at 10 µM (CCRF-CEM [9]): 96.1% | growth inhibition (GI) (HL-60(TB)): Active | inhibition of growth at 10 µM [10]: 99.8% | inhibition of growth at 10 µM (A549): 42.6% | inhibition of growth at 10 µM [11]: 19.4% | inhibition of growth at 10 µM (NCI-H226): 13.5% | inhibition of growth at 10 µM [12]: 18.4% | inhibition of growth at 10 µM [13]: 35.6% | inhibition of growth at 10 µM [14]: 9.63% | inhibition of growth at 10 µM [15]: 16.6% | inhibition of growth at 10 µM (U-251): 30.3% | inhibition of growth at 10 µM [16]: 23.4% | inhibition of growth at 10 µM (M14): 41.7% | inhibition of growth at 10 µM (MDA-MB-435): 33.8% | inhibition of growth at 10 µM (SK-MEL-28): 7.37% | inhibition of growth at 10 µM [17]: 31.1% | inhibition of growth at 10 µM [18]: 42.7% | inhibition of growth at 10 µM [19]: 41.4% | inhibition of growth at 10 µM [20]: 41% | inhibition of growth at 10 µM [21]: 7.08%

Cc1nc2cc(Nc3nc(Nc4ccc(F)cc4)nc(-c4cccs4)n3)ccc2n1Cc1ccccc1
inhibition of growth at 10 µM (SN12C): 29.7% | inhibition of growth at 10 µM [22]: 37.3% | inhibition of growth at 10 µM [1]: 63.5% | inhibition of growth at 10 µM [23]: 70.6% | inhibition of growth at 10 µM [2]: 24.8% | inhibition of growth at 10 µM [24]: 30.5% | LC50 (CCRF-CEM [3]): > 100 µM | GI50 (CCRF-CEM [3]): 2.59 µM | TGI (CCRF-CEM [3]): 9.49 µM | CC50 [4]: > 100 µM | GI50 [5]: 3.23 µM | LC50 [5]: 25.3 µM | TGI [5]: 17 µM | GI50 [6]: 4.72 µM | LC50 [6]: 39 µM | TGI [6]: 19.7 µM | GI50 [7]: 8.83 µM | LC50 (concentration killing 50% of cells) [7]: 75.7 µM | TGI [7]: 27.3 µM | GI50 (786-0): 4.54 µM | LC50 (concentration killing 50% of cells) (786-0): > 100 µM | TGI (786-0): 43.5 µM | CC50 [8]: > 100 µM | Ka (Calf thymus DNA): 3.19 ×10⁴ /M | inhibition of growth at 10 µM (CCRF-CEM [9]): 72.8% | growth inhibition (GI) (RPMI-8226): Active | inhibition of growth at 10 µM (A549): 56.9% | inhibition of growth at 10 µM [11]: 7.68% | inhibition of growth at 10 µM (NCI-H226): 35% | inhibition of growth at 10 µM [12]: 27.9% | inhibition of growth at 10 µM [13]: 69.7% | inhibition of growth at 10 µM [14]: 48.1% | inhibition of growth at 10 µM [15]: 33.3% | inhibition of growth at 10 µM [16]: 35.1% | inhibition of growth at 10 µM (M14): 46.9% | inhibition of growth at 10 µM (MDA-MB-435): 56.2% | inhibition of growth at 10 µM (SK-MEL-28): 25.7% | inhibition of growth at 10 µM [17]: 42.5% | inhibition of growth at 10 µM [25]: 38.5% | inhibition of growth at 10 µM [18]: 33.3% | inhibition of growth at 10 µM [19]: 49% | inhibition of growth at 10 µM [20]: 42.7% | inhibition of growth at 10 µM [21]: 4.89%
